The values below are quoted from earlier work in patent US12594237B2, “Mucoadhesive gel composition” (Viramal Limited, priority 2018, dated 2026).

Molecules are shown by their SMILES.

The conditions of the data set: orally administered.

Consider `CC(=O)[C@H]1CC[C@H]2[C@@H]3CCC4=CC(=O)CC[C@]4(C)[C@H]3CC[C@]12C` [progesterone], for which the half-life in serum entry is on record as “about 5 minutes”.
